Consider one substance from patent publication US8236761B2, “C-Met receptor regulation by angiotensin IV (AT4) receptor ligands” (Washington State University Research Foundation, priority 2006, dated 2012).

Test [1] concerns urokinase plasminogen activator (uPA). As to the kind of experiment: c-Met/HGF urokinase plasminogen activator (uPA) induction in MDCK cells. The class given is cell-based, canine. The following applies: HGF 10 ng/ml, Norleual 10^−10 M and 10^−12 M, 48 hours. On the procedure:
Thereafter, 10 ng/ml of HGF alone and with the indicated concentrations of Norleual in a 1% FBS DMEM were added to the cells. The cells were cultured under these conditions for four days. On the fourth day, the treatment media was aspirated and replaced with 5 mg/ml of MTT reagent in 0.1 M glycine buffer (Invitrogen). The MTT reagent was incubated with the cells for four hours at 37° C. before adding DMSO to solubilize the cells and record the MTT absorbance on a plate reader. The controls were treated as background and subtracted from all of the treatments to determine the increase in proliferation due solely to HGF treatment. Differences between the treatments were determined using one-way ANOVA with Bonferroni's post-hoc analysis (Prism statistical analysis software). * indicate p<0.05 vs. HGF treatment. N=6, mean+/−SEM. […] Madin-Darby Canine Kidney (MDCK) cells were plated in the wells of a 96 well plate in 100 μl of complete Dulbecco's Modified Eagle's Medium (DMEM). The cells were serum starved for 24 hours to induce quiescence. […] Absorbance of the cleaved substrate was quantitated on a Biotek Synergy HT 2 plate reader according to the manufacturer's instructions. […] The data was analyzed with Prism® (GraphPad, San Diego, Calif.) statistical analysis software. * indicates p<0.01 vs. HGF treatment by Tukey's post-hoc analysis. […]

Another test deals with Erk1/2, Akt. As to the kind of experiment: Erk1/2 and Akt phosphorylation in HGF-treated B16-F10 cells (scratch wound assay). The class given is cell-based, murine. The procedure:
Immunoprecipitation and Western blotting. Cells were serum starved for two hours in DMEM before treatment. Cells were harvested using RIPA lysis buffer (Upstate Biotechnol. Inc., Lake Placid, N.Y.) with phosphatase inhibitor cocktails 1 and 2 (Sigma, St Louis, Mo., USA). Protein concentration was determined using the BCA assay (Pierce, Rockford, Ill., USA). Lysates were incubated with antibody overnight at 4° C. Immunoprecipitation controls received mouse non-specific Ig (Upstate). Proteins were captured with protein-A agarose (Upstate) and were washed with PBS. Proteins were resolved using SDS-PAGE electrophoresis (Criterion, BioRad, Hercules, Calif., USA), transferred to nitrocellulose, and incubated with appropriate antibodies. Proteins were visualized using the Supersignal West Pico Chemiluminescent Substrate system (Pierce). The film images were digitized and analyzed using TotalLab® software (AmershamPharmacia/GE HealthCare, Piscataway, N.J.).
In addition, molecules associated with proliferation and migration signal transduction in B16-F10 melanoma cells were investigated in the scratch wound assay. HGF alone promoted enhanced phosphorylation of the signal transduction molecules Erk1/2, an effect that was attenuated by the presence of Norleual (FIG. 11B).

The next test deals with B16-F10 melanoma cells. Kind of test: In vivo pulmonary B16-F10 melanoma metastasis model. Particulars: tail vein inoculation, IP 50 μg/kg/day, fourteen days, melanin absorbance. Details: species or system C57BL/6 mice. The procedure: (FIG. 13A) C57BL/6 mice were inoculated subcutaneously with B16-F10 cells. Control or Norleual-containing slow release Elvax pellets were implanted inter-muscularly. Tumors were measured with digital calipers and tumor volumes were calculated (n=6), error bars indicate ±SD. (FIG. 13B) 400,000 B16-F10 cells, treated in suspension with either Norleual at 10^−11 M or PBS as a vehicle control, were injected into the tail vein of C57BL/6 mice. Mice received IP injections of Norleual (50 μg/kg/day) or PBS vehicle control. After fourteen days, lungs were removed and the absorbance of melanin was used to quantify metastasis; bars show (left to right) graft recipients treated with vehicle only, Norelual treated graft recipients, and ungrafted age-matched control. Error bars indicate±SEM, with n=5 and *p<0.05. (FIG. 13C) Photo of representative lungs from vehicle-only treated (controls, “Norleal −”) and Norleual treated (“Norleual +”) grafted mice.
In vivo metastasis. Six to eight month old C57BL/6 mice were injected with 400 000 B16-F10 cells in 200 μl PBS by tail vein injection. Two to three weeks later, mice were anesthetized and lungs were perfused with PBS and removed. […] The supernate was transferred to a 96 well plate and melanin absorbance at 410 nm was measured using a plate reader (Biotek Synergy2, Winooski, Vt., USA). […]

A further test has as its system human endothelial cells. Kind of test: Proliferation and migration of human endothelial cells. The class given is cell-based.
Test [2] relates to +SA murine mammary cancer cells. Kind of test: Angiogenesis-related gene microarray of +SA murine mammary tumors. The class given is in vivo, Balb/c mice. The following applies: 28 days intraperitoneal osmotic pump, 1 mg/kg/day. On the procedure: Angiotensin-like factor Norleual (COMPOUND 2) was tested for its ability to modulate angiogenic genes in murine mammary tumors. Briefly, Balb/c mice grafted with +SA murine mammary cancer cells were treated with Compound 2. After 28 days of intraperitoneal administration via an osmotic pump (at a dose of 1 mg/kg/day), primary tumors were harvested and RNA was collected. Transcriptional activities of 96 angiogenesis-related genes were assessed using gene microarrays.

Non-standard residues stand in square brackets, D forms with d. No end group written: not given here. Nle = CCCC[C@H](N)C(=O)O

Regarding “Nle-Tyr-Leu-ψ-His-Pro-Phe ([Nle]YLHPF; also: reduced peptide bond psi(CH2NH2) between Leu and His) [Norleual]”, in test [1], the “c-Met/HGF uPA induction” value is listed as “attenuation”. For the same substance, in the test with Erk1/2, Akt, the “HGF-enhanced phosphorylation of Erk1/2” value is on record as “attenuated” and the “HGF-induced Akt phosphorylation” value was “did not affect”. Further, in the test on B16-F10 melanoma cells, the B16-F10 lung metastasis result is “dramatically inhibited”. In addition, the “Proliferation and migration of human endothelial cells” value in the test on human endothelial cells was “inhibited”. The “Change in gene expression versus control: Adamts 1, CD36, Connective tissue growth factor, PECAM 1, Cxcl 4, restin, Ccl 2, TNF-α, VEGF-α, VEGF-β” value in test [2] is recorded as “at least five-fold”.
